Experimental data from patent US20020051978A1, “Methods and compositions for the identification, assessment, prevention and therapy of human cancers” (priority 2000, published 2002).
Like-named read-outs stand apart in the source and are kept apart here.

Key:
[1] = system: 60 cancer cell lines (NCI 60 cancer cell line series); test: NCI-DTP in vitro cancer screen, sulforhodamine B (SRB) growth inhibition, 48 hour exposure; type: cell-based, human; parameters: key to sensitivity class Ovarian OVCAR-8 CL6005 / sensitivity class Ovarian SK-OV-3 CL6011 / sensitivity class Prostate DU-145 CL11003 / sensitivity class NSCLC NCI-H522 CL1003 / sensitivity class Ovarian IGROV1 CL6010 / sensitivity class Ovarian OVCAR-4 CL6002 / sensitivity class Prostate PC-3(I) CL11001 / sensitivity class Renal A498 CL9013 / sensitivity class Renal SN12C CL9008: sensitivity class: 1 = Low, 2 = Medium, 3 = High
Outline: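 Values come from the NCI-DTP screen database: -log GI50, the concentration giving 50% growth inhibition, derived from SRB cell-mass dose-response curves. Each line seeded at its own density, treated day 1 at five ten-fold-spaced doses in duplicate wells, stained after 48 h.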

[2] = system: 60 cancer cell lines (NCI 60 cancer cell line series); settings: cited from earlier work

NC(=O)NO [Hydroxyurea]
classification of cell line as Low(1), Medium(2) or High(3) sensitivity to compound ([1]; Breast BT-549 (CL5013)): 1 | classification of cell line as Low(1), Medium(2) or High(3) sensitivity to compound ([1]; Breast HS-578T CL5006): 2 | classification of cell line as Low(1), Medium(2) or High(3) sensitivity to compound ([1]; Breast MCF7(I) (CL5001)): 2 | classification of cell line as Low(1), Medium(2) or High(3) sensitivity to compound ([1]; Breast MCF7/ADRr (CL5002)): 2 | classification of cell line as Low(1), Medium(2) or High(3) sensitivity to compound ([1]; Breast MDA-MB-231 CL5005): 1 | classification of cell line as Low(1), Medium(2) or High(3) sensitivity to compound ([1]; Breast MDA-MB-435 (CL5011)): 1 | classification of cell line as Low(1), Medium(2) or High(3) sensitivity to compound ([1]; Breast MDA-N CL5012): 1 | classification of cell line as Low(1), Medium(2) or High(3) sensitivity to compound ([1]; Breast T-47D (CL5014)): 1 | classification of cell line as Low(1), Medium(2) or High(3) sensitivity to compound ([1]; CNS SF-268 CL12014): 2 | classification of cell line as Low(1), Medium(2) or High(3) sensitivity to compound ([1]; CNS SF-295 CL12015): 3 | classification of cell line as Low(1), Medium(2) or High(3) sensitivity to compound ([1]; CNS SF-539 CL12016): 3 | classification of cell line as Low(1), Medium(2) or High(3) sensitivity to compound ([1]; CNS SNB-19 (CL12002)): 1 | classification of cell line as Low(1), Medium(2) or High(3) sensitivity to compound ([1]; CNS SNB-75(I) CL12005): 2 | classification of cell line as Low(1), Medium(2) or High(3) sensitivity to compound ([1]; CNS U251(I) CL12009): 2 | classification of cell line as Low(1), Medium(2) or High(3) sensitivity to compound ([1]; Colon COLO-250 CL4010): 1 | classification of cell line as Low(1), Medium(2) or High(3) sensitivity to compound ([1]; Colon HCC-2998 (CL4002)): 2 | classification of cell line as Low(1), Medium(2) or High(3) sensitivity to compound ([1]; Colon HCT-15 CL4015): 2 | classification of cell line as Low(1), Medium(2) or High(3) sensitivity to compound ([1]; Colon HCT-116 (CL4003)): 2 | classification of cell line as Low(1), Medium(2) or High(3) sensitivity to compound ([1]; Colon HT29(I) CL4001): 2 | classification of cell line as Low(1), Medium(2) or High(3) sensitivity to compound ([1]; Colon KM12 (CL4017)): 2 | classification of cell line as Low(1), Medium(2) or High(3) sensitivity to compound ([1]; Colon SW-620 (CL4009)): 2 | classification of cell line as Low(1), Medium(2) or High(3) sensitivity to compound ([1]; Leukemia CCRF-CEM(I) (CL7003)): 3 | classification of cell line as Low(1), Medium(2) or High(3) sensitivity to compound ([1]; Leukemia HL-60(I) (CL7008)): 3 | classification of cell line as Low(1), Medium(2) or High(3) sensitivity to compound ([1]; Leukemia K562(I) CL7005): 2 | classification of cell line as Low(1), Medium(2) or High(3) sensitivity to compound ([1]; Leukemia MOLT-4 (CL7006)): 3 | classification of cell line as Low(1), Medium(2) or High(3) sensitivity to compound ([1]; Leukemia RPMI-8226(I) (CL7010)): 3 | classification of cell line as Low(1), Medium(2) or High(3) sensitivity to compound ([1]; Leukemia SR CL7019): 3 | classification of cell line as Low(1), Medium(2) or High(3) sensitivity to compound ([1]; Melanoma LOX IMVI CL10001): 2 | classification of cell line as Low(1), Medium(2) or High(3) sensitivity to compound ([1]; Melanoma M14 (CL10014)): 2 | classification of cell line as Low(1), Medium(2) or High(3) sensitivity to compound ([1]; Melanoma MALME-3M CL10002): 2 | classification of cell line as Low(1), Medium(2) or High(3) sensitivity to compound ([1]; Melanoma SK-MEL-2 (CL10005)): 1 | classification of cell line as Low(1), Medium(2) or High(3) sensitivity to compound ([1]; Melanoma SK-MEL-5 (CL10007)): 2 | classification of cell line as Low(1), Medium(2) or High(3) sensitivity to compound ([1]; Melanoma SK-MEL-28 (CL10008)): 1 | classification of cell line as Low(1), Medium(2) or High(3) sensitivity to compound ([1]; Melanoma UACC-62 (CL10020)): 3 | classification of cell line as Low(1), Medium(2) or High(3) sensitivity to compound ([1]; Melanoma UACC-257 (CL10021)): 1 | classification of cell line as Low(1), Medium(2) or High(3) sensitivity to compound ([1]; NSCLC A549/ATCC (CL1004)): 2 | classification of cell line as Low(1), Medium(2) or High(3) sensitivity to compound ([1]; NSCLC EKVX (CL1008)): 1 | classification of cell line as Low(1), Medium(2) or High(3) sensitivity to compound ([1]; NSCLC HOP-62 (CL1026)): 2 | classification of cell line as Low(1), Medium(2) or High(3) sensitivity to compound ([1]; NSCLC HOP-92 (CL1029)): 2 | classification of cell line as Low(1), Medium(2) or High(3) sensitivity to compound ([1]; NSCLC NCI-H226 CL1013): 2 | sensitivity class NSCLC NCI-H23(I) CL1001 ([1]; cell line NSCLC NCI-H23(I), CL1001): 2 | sensitivity class NSCLC NCI-H332M CL1017 ([1]; cell line NSCLC NCI-H332M, CL1017): 1 | sensitivity class NSCLC NCI-H460 CL1021 ([1]; cell line NSCLC NCI-H460, CL1021): 3 | sensitivity class NSCLC NCI-H522 CL1003 ([1]; cell line NSCLC NCI-H522, CL1003): 2 | sensitivity class Ovarian IGROV1 CL6010 ([1]; cell line Ovarian IGROV1, CL6010): 2 | sensitivity class Ovarian OVCAR-3 CL6001 ([1]; cell line Ovarian OVCAR-3, CL6001): 2 | sensitivity class Ovarian OVCAR-4 CL6002 ([1]; cell line Ovarian OVCAR-4, CL6002): 1 | sensitivity class Ovarian OVCAR-5 CL6003 ([1]; cell line Ovarian OVCAR-5, CL6003): 2 | sensitivity class Ovarian OVCAR-8 CL6005 ([1]; cell line Ovarian OVCAR-8, CL6005): 2 | sensitivity class Ovarian SK-OV-3 CL6011 ([1]; cell line Ovarian SK-OV-3, CL6011): 1 | sensitivity class Prostate DU-145 CL11003 ([1]; cell line Prostate DU-145, CL11003): 2 | sensitivity class Prostate PC-3(I) CL11001 ([1]; cell line Prostate PC-3(I), CL11001): 2 | sensitivity class Renal 786-O CL9018 ([1]; cell line Renal 786-O, CL9018): 2 | sensitivity class Renal A498 CL9013 ([1]; cell line Renal A498, CL9013): 2 | sensitivity class Renal ACHN CL9023 ([1]; cell line Renal ACHN, CL9023): 3 | sensitivity class Renal CAKI-1 CL9015 ([1]; cell line Renal CAKI-1, CL9015): 3 | sensitivity class Renal RXF-393 CL9016 ([1]; cell line Renal RXF-393, CL9016): 2 | sensitivity class Renal SN12C CL9008 ([1]; cell line Renal SN12C, CL9008): 2 | sensitivity class Renal TK10 CL9024 ([1]; cell line Renal TK10, CL9024): 1 | sensitivity class Renal UO-31 CL9004 ([1]; cell line Renal UO-31, CL9004): 2 | -Log (GI50) ([2]; Breast BT-549 (CL5013)): 2.8 | -Log (GI50) ([2]; Breast HS-578T CL5006): 3.1 | -Log (GI50) ([2]; Breast MCF7(I) (CL5001)): 3.5 | -Log (GI50) ([2]; Breast MCF7/ADRr (CL5002)): 3.5 | -Log (GI50) ([2]; Breast MDA-MB-231 CL5005): 2.6 | -Log (GI50) ([2]; Breast MDA-MB-435 (CL5011)): 2.7 | -Log (GI50) ([2]; Breast MDA-N CL5012): 2.7 | -Log (GI50) ([2]; Breast T-47D (CL5014)): 2.8 | -Log (GI50) ([2]; CNS SF-268 CL12014): 3.3 | -Log (GI50) ([2]; CNS SF-295 CL12015): 3.5 | -Log (GI50) ([2]; CNS SF-539 CL12016): 3.5 | -Log (GI50) ([2]; CNS SNB-19 (CL12002)): 2.8 | -Log (GI50) ([2]; CNS SNB-75(I) CL12005): 3.1 | -Log (GI50) ([2]; CNS U251(I) CL12009): 3.3 | -Log (GI50) ([2]; Colon COLO-250 CL4010): 2.8 | -Log (GI50) ([2]; Colon HCC-2998 (CL4002)): 3.1 | -Log (GI50) ([2]; Colon HCT-15 CL4015): 3.1 | -Log (GI50) ([2]; Colon HCT-116 (CL4003)): 3.0 | -Log (GI50) ([2]; Colon HT29(I) CL4001): 3.3 | -Log (GI50) ([2]; Colon KM12 (CL4017)): 3.1 | -Log (GI50) ([2]; Colon SW-620 (CL4009)): 3.0 | -Log (GI50) ([2]; Leukemia CCRF-CEM(I) (CL7003)): 4.3 | -Log (GI50) ([2]; Leukemia HL-60(I) (CL7008)): 4.7 | -Log (GI50) ([2]; Leukemia K562(I) CL7005): 3.0 | -Log (GI50) ([2]; Leukemia MOLT-4 (CL7006)): 3.8 | -Log (GI50) ([2]; Leukemia RPMI-8226(I) (CL7010)): 3.6 | -Log (GI50) ([2]; Leukemia SR CL7019): 3.7 | -Log (GI50) ([2]; Melanoma LOX IMVI CL10001): 3.2 | -Log (GI50) ([2]; Melanoma M14 (CL10014)): 3.2 | -Log (GI50) ([2]; Melanoma MALME-3M CL10002): 2.9 | -Log (GI50) ([2]; Melanoma SK-MEL-2 (CL10005)): 2.8 | -Log (GI50) ([2]; Melanoma SK-MEL-5 (CL10007)): 3.2 | -Log (GI50) ([2]; Melanoma SK-MEL-28 (CL10008)): 2.7 | -Log (GI50) ([2]; Melanoma UACC-62 (CL10020)): 3.6 | -Log (GI50) ([2]; Melanoma UACC-257 (CL10021)): 2.8 | -Log (GI50) ([2]; NCSLC NCI-H522 CL1003): 3.1 | -Log (GI50) ([2]; NSCLC A549/ATCC (CL1004)): 3.3 | -Log (GI50) ([2]; NSCLC EKVX (CL1008)): 2.8 | -Log (GI50) ([2]; NSCLC HOP-62 (CL1026)): 3.0 | -Log (GI50) ([2]; NSCLC HOP-92 (CL1029)): 3.1 | -Log (GI50) ([2]; NSCLC NCI-H23(I) CL1001): 3.1 | -Log (GI50) ([2]; NSCLC NCI-H226 CL1013): 3.1 | -Log (GI50) ([2]; NSCLC NCI-H332M CL1017): 2.8 | -Log (GI50) ([2]; NSCLC NCI-H460 CL1021): 3.5 | -Log (GI50) ([2]; Ovarian IGROV1 CL6010): 3.0 | -Log (GI50) ([2]; Ovarian OVCAR-3 CL6001): 3.0 | -Log (GI50) ([2]; Ovarian OVCAR-4 CL6002): 2.8 | -Log (GI50) ([2]; Ovarian OVCAR-5 CL6003): 3.2 | -Log (GI50) ([2]; Ovarian OVCAR-8 CL6005): 3.3 | -Log (GI50) ([2]; Ovarian SK-OV-3 CL6011): 2.8 | -Log (GI50) ([2]; Prostate DU-145 CL11003): 3.1 | -Log (GI50) ([2]; Prostate PC-3(I) CL11001): 3.0 | -Log (GI50) ([2]; Renal 786-O CL9018): 3.5 | -Log (GI50) ([2]; Renal A498 CL9013): 3.2 | -Log (GI50) ([2]; Renal ACHN CL9023): 4.0 | -Log (GI50) ([2]; Renal CAKI-1 CL9015): 3.6 | -Log (GI50) ([2]; Renal RXF-393 CL9016): 3.2 | -Log (GI50) ([2]; Renal SN12C CL9008): 3.1 | -Log (GI50) ([2]; Renal TK10 CL9024): 2.7 | -Log (GI50) ([2]; Renal UO-31 CL9004): 3.3
